# Square brackets hold non-standard residues; d marks the D form. Ends that are not written are not given here. pGlu = O=C1CC[C@@H](C(=O)O)N1
# How the values were obtained:
# [1] = test system: panelists; assay: Consensus attribute scores of flavor enhancers in Uncle Ben's Garden Vegetable Ready rice; format: in vivo, human; design: key to Cooked White Rice / Vegetable Oil / Vegetable Complex / Cooked Green Vegetable / Cooked Corn / Sweet (BASIC TASTES) / Salt (BASIC TASTES) / Mouthdrying (Texture) / Residual Mouthcoating (Texture) / Total Aromatics / Bitter (BASIC TASTES): 15-point scale, 0 = none, 15 = very strong; conditions: for Bitter (BASIC TASTES) / Black Pepper / Cooked Corn / Cooked Green Vegetable / Cooked White Rice / Dehydrated onion/garlic / HVP/Brothy / Mineral/Flint / Mouthdrying (Texture) / Residual Mouthcoating (Texture) / Salt (BASIC TASTES) / Salt Burn (Chemical Feeling Factors) / Sweet (BASIC TASTES) / Total Aromatics / Umami (Chemical Feeling Factors) / Vegetable Complex / Vegetable Oil: rice
# Method: Descriptive attributes (e.g., taste, flavor and chemical feeling factors) of three use levels of pGlu-Cys (FE-35), pGlu-Cys-Gly (FE-36), pGlu-Cys-Cys (FE-37), pGlu-Cys-Val (FE-38) and pGlu-Val-Cys (UE-30) flavor composition peptides were determined. The three use levels were as follows: 1.0 ppb, 10.0 ppb and 100.0 ppb.
# Data was collected for the attributes of the product in-mouth for the use levels according to the following protocol: • The samples were analyzed for flavor by six to nine members of a panel, trained and experienced in flavor evaluation using the Spectrum™ method. Samples were evaluated across multiple panel sessions. • The strength of each attribute was rated on a 15-point scale, where 0=none and 15=very strong. • This scale incorporates the ability to use tenths of a point and therefore has the potential of 150 scale differentiations. • The scale may be expanded beyond 15 points to include extreme ratings if necessary.
# Preparation of Rice Samples • Each flavor enhancer was tested in Uncle Ben's Garden Vegetable Ready rice matrix at 3 different concentrations: 1 ppb, 10 ppb and 100 ppb. A total of 15 points with flavor enhancers were prepared for sensory evaluation. Additionally, 15 control samples were prepared. Each point had 2 samples (test and control) and was made from one pouch of rice. • Directions to prepare the solutions: • The 15 ready- to eat pouches were microwaved according to the procedure found on the back of the pouch: (1) squeeze pouch to separate rice, (2) tear two inches to vent, (3) heat on High for 90 seconds and (4) remove from microwave using COOL TOUCH area on untorn side. • From each pouch 124.75 g (test sample) and 99.8 g (control) were weighed out. The test sample had the flavor enhancer and/or salt. The control sample only had salt added. • The flavor enhancer and/or salt (non-iodized salt) were weighed in a soufflé cup. The weighed amount of flavor enhancer and/or salt was added to the sub-sampled rice. The rice was stirred and mixed to evenly distribute the salt added. • Some rice was placed back into the soufflé cup, sealed, and the cup was shook to get the flavor enhancer and/or salt that may have been stuck on the walls of the soufflé cup. After shaking the soufflé cup, the rice was added back to the original sub-sampled rice and stirred/mixed again. • Each sample (test and control) was microwaved for another 30 seconds (or until warm) to ensure that the salts/compounds were going completely into the solutions. • All samples (test and control) were tasted at the same temperature. • Each test sample had 0.2% NaCl added and flavor enhancers at the specified concentrations.
# A summary of the concentrations of NaCl and flavor composition peptides in the rice samples is described in table 23. The first value of each cell represents a single sample amount of an ingredient in milligrams, and the second number in parenthesis is a doubling of the ingredient (in grams) for use in a doubled size sample.
# The panelists evaluated each sample for the attributes described by table 25.
# [2] = test system: panel of trained tasters; assay: Saltiness of 25% sodium-reduced food products with peptides, panel of trained tasters; format: in vivo, human; conditions: for Saltiness compared to control / Saltiness/flavor compared to control: 10 ppb each, n=4; for Saltiness/flavor compared to control: control 350 mg
# Method: Food product compositions were prepared by admixing flavor composition peptide(s) of the present application with food compositions, wherein the level of sodium (NaCl) in the food product compositions was reduced. The level of sodium was reduced by 25%, 50% or 75% compared to food products compositions that were not admixed with flavor composition peptides. The food product compositions comprising the flavor composition peptides were tasted by a panel of trained tasters and the level of saltiness was compared to the control food products.
# The peptides pGlu-Val-Leu (identified as “SE-13”), pGlu-Val-Cys (identified as “UE-30”), pGlu-Val-Val (identified as “SE-17”) and pGlu-Cys-Cys (identified as “FE-37”) were tested in cottage cheese, tortilla chips, ketchup, cream of mushroom soup, alfredo sauce, sausage, mixed nuts, peanuts, soy sauce and chicken broth. The level of sodium in the test food products comprising the peptides was reduced by 25% compared to the control food products.
# [3] = Chicken Broth, control 860 mg, test 645 mg Na
substance,measurement,setting,value
[pGlu]-Cys-Val [FE-38],Cooked green vegetable in rice compared to the Control,[1]; 1 & 100 ppb,low level of cooked green vegetable
same,Bitter in rice,"[1]; all samples (1, 10, 100 ppb)",bitter
same,"Mineral/flint note in rice, not seen in the Control","[1]; all samples (1, 10, 100 ppb)",low mineral/flint note
same,"Mouthdrying in rice, not seen in the Control","[1]; all samples (1, 10, 100 ppb)",have mouthdrying
same,Salt burn feeling factor in rice compared to the Control,"[1]; all samples (1, 10, 100 ppb)",higher
same,Umami feeling factor in rice compared to the Control,"[1]; all samples (1, 10, 100 ppb)",higher
same,Bitter (BASIC TASTES),[1]; 1.0 ppb (5 ppm),0.8
same,Black Pepper,[1]; 1.0 ppb (5 ppm),1.0
same,Cooked Corn,[1]; 1.0 ppb (5 ppm),0.8
same,Cooked Green Vegetable,[1]; 1.0 ppb (5 ppm),0.8
same,Cooked White Rice,[1]; 1.0 ppb (5 ppm),3.0
same,Dehydrated onion/garlic,[1]; 1.0 ppb (5 ppm),1.0
same,HVP/Brothy,[1]; 1.0 ppb (5 ppm),1.0
same,Mineral/Flint,[1]; 1.0 ppb (5 ppm),1.0
same,Mouthdrying (Texture),[1]; 1.0 ppb (5 ppm),1.8
same,Residual Mouthcoating (Texture),[1]; 1.0 ppb (5 ppm),1.0
same,Salt (BASIC TASTES),[1]; 1.0 ppb (5 ppm),13.8
same,Salt Burn (Chemical Feeling Factors),[1]; 1.0 ppb (5 ppm),1.0
same,Sweet (BASIC TASTES),[1]; 1.0 ppb (5 ppm),3.5
same,Total Aromatics,[1]; 1.0 ppb (5 ppm),6.3
same,Umami (Chemical Feeling Factors),[1]; 1.0 ppb (5 ppm),2.0
same,Vegetable Complex,[1]; 1.0 ppb (5 ppm),1.5
same,Vegetable Oil,[1]; 1.0 ppb (5 ppm),0.8
same,Bitter (BASIC TASTES),[1]; 10.0 ppb (50 ppm),1.2
same,Black Pepper,[1]; 10.0 ppb (50 ppm),1.0
same,Cooked Corn,[1]; 10.0 ppb (50 ppm),1.0
same,Cooked Green Vegetable,[1]; 10.0 ppb (50 ppm),0.0
same,Cooked White Rice,[1]; 10.0 ppb (50 ppm),3.0
same,Dehydrated onion/garlic,[1]; 10.0 ppb (50 ppm),0.8
same,HVP/Brothy,[1]; 10.0 ppb (50 ppm),1.0
same,Mineral/Flint,[1]; 10.0 ppb (50 ppm),1.5
same,Mouthdrying (Texture),[1]; 10.0 ppb (50 ppm),2.0
same,Residual Mouthcoating (Texture),[1]; 10.0 ppb (50 ppm),1.0
same,Salt (BASIC TASTES),[1]; 10.0 ppb (50 ppm),13.0
same,Salt Burn (Chemical Feeling Factors),[1]; 10.0 ppb (50 ppm),1.0
same,Sweet (BASIC TASTES),[1]; 10.0 ppb (50 ppm),3.3
same,Total Aromatics,[1]; 10.0 ppb (50 ppm),6.0
same,Umami (Chemical Feeling Factors),[1]; 10.0 ppb (50 ppm),2.0
same,Vegetable Complex,[1]; 10.0 ppb (50 ppm),1.0
same,Vegetable Oil,[1]; 10.0 ppb (50 ppm),1.0
same,Bitter (BASIC TASTES),[1]; 100 ppb (50 ppm),0.8
same,Black Pepper,[1]; 100 ppb (50 ppm),1.0
same,Cooked Corn,[1]; 100 ppb (50 ppm),0.8
same,Cooked Green Vegetable,[1]; 100 ppb (50 ppm),0.8
same,Cooked White Rice,[1]; 100 ppb (50 ppm),3.0
same,Dehydrated onion/garlic,[1]; 100 ppb (50 ppm),1.0
same,HVP/Brothy,[1]; 100 ppb (50 ppm),1.5
same,Mineral/Flint,[1]; 100 ppb (50 ppm),1.0
same,Mouthdrying (Texture),[1]; 100 ppb (50 ppm),2.5
same,Residual Mouthcoating (Texture),[1]; 100 ppb (50 ppm),1.0
same,Salt (BASIC TASTES),[1]; 100 ppb (50 ppm),13.5
same,Salt Burn (Chemical Feeling Factors),[1]; 100 ppb (50 ppm),1.3
same,Sweet (BASIC TASTES),[1]; 100 ppb (50 ppm),3.5
same,Total Aromatics,[1]; 100 ppb (50 ppm),6.5
same,Umami (Chemical Feeling Factors),[1]; 100 ppb (50 ppm),3.0
same,Vegetable Complex,[1]; 100 ppb (50 ppm),1.5
same,Vegetable Oil,[1]; 100 ppb (50 ppm),0.8
[pGlu]-Val-Cys [UE-30],Mouthdrying in rice,[1]; 10 and 100 ppb,low mouthdrying
same,Cooked green vegetable in rice compared to the Control,"[1]; all samples (1, 10, 100 ppb)",low level of cooked green vegetable
same,Salt burn feeling factor in rice compared to the Control,"[1]; all samples (1, 10, 100 ppb)",higher
same,Salt in rice compared to the Control,"[1]; all samples (1, 10, 100 ppb)",saltier than the Control
same,Umami feeling factor in rice compared to the Control,"[1]; all samples (1, 10, 100 ppb)",higher
same,Black Pepper,[1]; 1.0 ppb (5 ppm),1.3
same,Cooked Corn,[1]; 1.0 ppb (5 ppm),0.8
same,Cooked Green Vegetable,[1]; 1.0 ppb (5 ppm),0.8
same,Cooked White Rice,[1]; 1.0 ppb (5 ppm),3.0
same,Dehydrated onion/garlic,[1]; 1.0 ppb (5 ppm),1.0
same,HVP/Brothy,[1]; 1.0 ppb (5 ppm),1.5
same,Mineral/Flint,[1]; 1.0 ppb (5 ppm),0.0
same,Mouthdrying (Texture),[1]; 1.0 ppb (5 ppm),0.0
same,Residual Mouthcoating (Texture),[1]; 1.0 ppb (5 ppm),1.0
same,Salt (BASIC TASTES),[1]; 1.0 ppb (5 ppm),15.0
same,Salt Burn (Chemical Feeling Factors),[1]; 1.0 ppb (5 ppm),1.0
same,Sweet (BASIC TASTES),[1]; 1.0 ppb (5 ppm),3.0
same,Total Aromatics,[1]; 1.0 ppb (5 ppm),6.8
same,Umami (Chemical Feeling Factors),[1]; 1.0 ppb (5 ppm),1.5
same,Vegetable Complex,[1]; 1.0 ppb (5 ppm),1.5
same,Vegetable Oil,[1]; 1.0 ppb (5 ppm),0.8
same,Black Pepper,[1]; 10.0 ppb (50 ppm),1.5
same,Cooked Corn,[1]; 10.0 ppb (50 ppm),1.0
same,Cooked Green Vegetable,[1]; 10.0 ppb (50 ppm),1.0
same,Cooked White Rice,[1]; 10.0 ppb (50 ppm),3.0
same,Dehydrated onion/garlic,[1]; 10.0 ppb (50 ppm),1.0
same,HVP/Brothy,[1]; 10.0 ppb (50 ppm),1.5
same,Mineral/Flint,[1]; 10.0 ppb (50 ppm),0.5
same,Mouthdrying (Texture),[1]; 10.0 ppb (50 ppm),1.8
same,Residual Mouthcoating (Texture),[1]; 10.0 ppb (50 ppm),1.0
same,Salt (BASIC TASTES),[1]; 10.0 ppb (50 ppm),15.0
same,Salt Burn (Chemical Feeling Factors),[1]; 10.0 ppb (50 ppm),0.8
same,Sweet (BASIC TASTES),[1]; 10.0 ppb (50 ppm),3.5
same,Total Aromatics,[1]; 10.0 ppb (50 ppm),6.8
same,Umami (Chemical Feeling Factors),[1]; 10.0 ppb (50 ppm),2.0
same,Vegetable Complex,[1]; 10.0 ppb (50 ppm),1.8
same,Vegetable Oil,[1]; 10.0 ppb (50 ppm),0.8
same,Black Pepper,[1]; 100 ppb (50 ppm),1.5
same,Cooked Corn,[1]; 100 ppb (50 ppm),1.0
same,Cooked Green Vegetable,[1]; 100 ppb (50 ppm),1.0
same,Cooked White Rice,[1]; 100 ppb (50 ppm),3.0
same,Dehydrated onion/garlic,[1]; 100 ppb (50 ppm),1.0
same,HVP/Brothy,[1]; 100 ppb (50 ppm),1.5
same,Mineral/Flint,[1]; 100 ppb (50 ppm),0.5
same,Mouthdrying (Texture),[1]; 100 ppb (50 ppm),1.5
same,Residual Mouthcoating (Texture),[1]; 100 ppb (50 ppm),1.5
same,Salt (BASIC TASTES),[1]; 100 ppb (50 ppm),16.0
same,Salt Burn (Chemical Feeling Factors),[1]; 100 ppb (50 ppm),1.3
same,Sweet (BASIC TASTES),[1]; 100 ppb (50 ppm),3.5
same,Total Aromatics,[1]; 100 ppb (50 ppm),6.8
same,Umami (Chemical Feeling Factors),[1]; 100 ppb (50 ppm),3.0
same,Vegetable Complex,[1]; 100 ppb (50 ppm),1.8
same,Vegetable Oil,[1]; 100 ppb (50 ppm),0.5
[pGlu]-Val-Leu [SE-13],Saltiness compared to control,[2]; [3],Test samples saltier than
same,Saltiness/flavor compared to control,"[2]; Cottage Cheese, test 262 mg Na",Test samples notably less
same,Saltiness compared to SE-17,"[2]; Ketchup, test 120 mg Na",SE-13 more salty than
same,Saltiness compared to control,"[2]; Tortilla Chips, control 103 mg, test 77 mg Na",Test samples saltier than
[pGlu]-Val-Val [SE-17],Saltiness compared to control,[2]; [3],Test samples saltier than
same,Saltiness/flavor compared to control,"[2]; Cottage Cheese, test 262 mg Na",Test samples notably less
same,Preference among test samples,"[2]; Cottage Cheese, test 262 mg Na, compared to SE-13 and SE-13 + UE-30",combination preferred
